Assay results reported in patent publication US10160812B2, “Bispecific HER2 antibodies” (MedImmune, LLC, priority 2014, dated 2018).
“Also recorded” adds a separate entry of the source.

Experiments:
[1] = system: T47D; assay: In vitro cytotoxic activity (Cell Titer Glo); type: cell-based, human; conditions: 3 to 4 days
Procedure: (§3) Briefly, cells were harvested, resuspended, and plated in serum-containing culture media at a density of 5,000 to 20,000 per well (depending on the growth kinetics of each cell line) of 96-well plates in a volume of 100 μL. A 2× concentration of each dose of antibody or ADC to be tested was prepared by diluting the test articles in culture medium. One hundred microliters of each test article was added to cells in triplicate such that the final dose curve ranged from 5 nM down to 0.08 pM in a stepwise 1:4 serial dilution series. The treated cells were incubated at 37° C./5% CO2 for 3 to 4 days, depending on the growth kinetics of each particular cell line. Cell viability was determined using Cell Titer Glo according to manufacturer's instructions. Data are analyzed by the GraphPad Prism software and presented as percent growth inhibition relative to the untreated control.

[2] = system: MDA-MB-361 model; assay: CBX xenograft tumor model; type: in vivo, Athymic nude mice; conditions: MDA-MB-361 CBX, 3 mg/kg
Procedure: All mouse experiments were carried out in compliance with the guidelines published by the Association for Assessment and Accreditation of Laboratory Animal Care (AAALAC) and protocols approved by the MedImmune Institutional Animal Care and Use Committee. Athymic nude mice between 4-8 weeks of age were used in the studies. In subcutaneous CBX models, animals were injected unilaterally on the right flank with tumor cells harvested from culture at a specific passage lot. In orthotopic CBX models, xenografts were established by injecting 5×10^6 cells per mouse (suspended in 50% matrigel) into the mammary fat pad on the right flank of animals. In PDX models, animals are implanted unilaterally on the flank with tumor fragments harvested from host animals each implanted from a specific passage lot. Pre-study tumor volumes were recorded for each experiment beginning approximately one week prior to its estimated start date. When tumors reach the appropriate tumor volume initiation (TVI) range (typically 150-250 mm^3), animals are randomized into treatment and control groups and dosing initiated. […] Animals were observed daily and tumor dimensions and body weights were measured and recorded twice weekly. Tumor volumes are calculated using the following formula: tumor volume=π÷6 (length×width^2). […]

[3] = system: MDA-MB-453; assay: In vitro cytotoxic activity (Cell Titer Glo); type: cell-based, human; conditions: MDA-MB-453, 3 to 4 days; read-out: In vitro potency (EC50 in pM)
Procedure: (§4) A panel of human cancer cell lines expressing various levels of HER2 was used to evaluate the cytotoxic activity of bispecific ADC (Table 5 in Example 1). Briefly, cells were harvested, resuspended, and plated in serum-containing culture media at a density of 5,000 to 20,000 per well (depending on the growth kinetics of each cell line) of 96-well plates in a volume of 100 μL. A 2× concentration of each dose of antibody or ADC to be tested was prepared by diluting the test articles in culture medium. One hundred microliters of each test article was added to cells in triplicate such that the final dose curve ranged from 5 nM down to 0.08 pM in a stepwise 1:4 serial dilution series. The treated cells were incubated at 37° C./5% CO2 for 3 to 4 days, depending on the growth kinetics of each particular cell line. Cell viability was determined using Cell Titer Glo according to manufacturer's instructions. Data are analyzed by the GraphPad Prism software and presented as percent growth inhibition relative to the untreated control. EC50 values were determined using Sigmoidal non-linear regression analysis with GraphPad Prism software and were summarized in Table 6.

[4] = system: JIMT-1; assay: In vitro cytotoxic activity (Cell Titer Glo); type: cell-based, human; conditions: JIMT-1, 3 to 4 days
Procedure: as §4

[5] = system: NCI-N87 and MDA-MB-468 cells co-culture; assay: Bystander effect co-culture assay (FACS); type: cell-based, human; conditions: co-culture of HER2-overexpressing NCI-N87 and HER2-null MDA-MB-468, 5 nM, 4 days
Procedure: NCI-N87 cells were stably transfected with green fluorescent protein (GFP) and MDA-MB-468 cells were stably transfected with red fluorescent protein (RFP). Both cell lines were harvested, washed, resuspended in culture media and then seeded in the same well of a 6-well plate as co-culture. As a control, each cell line was seeded in a different 6-well plate as single culture (FIG. 28A). To adjust to different growth kinetics, NCI-N87 cells were seeded at 5×10^5 cells/well and MDA-MB-468 cells were seeded at 2×10^5 cells/well. Cells were incubated for 2 days at 37° C./5% CO2. Media were aspirated and fresh media containing 5 nM of antibody or ADC to be tested was added to cells and the plates were incubated for 4 days at 37° C./5% CO2. At the end of treatment, cells in each well were collected, washed, resuspended in 100 μL of ice-cold FACS buffer and then fixed with 2% PFA. Cells were analyzed by a BD LSR II machine and BD FACSDiva™ software. Data were analyzed with FlowJo software.

[6] = system: RT-112; assay: In vitro cytotoxic activity (Cell Titer Glo); type: cell-based, human; conditions: RT-112, 3 to 4 days
Procedure: as §3

[7] = biological target: T1, HER2 (Homo sapiens, UniProt P04626); assay: FACS-based binding competition assay with labeled 39S; set-up: endogenous in cells; host or cells: BT-474; conditions: BT-474 cells, 2 ug/mL labeled 39S
Procedure: BT-474 cells were harvested, resuspended in FACS buffer, and 2.5×10^5 cells/well were added to a 96-well U-bottom plate. […] After 1 hour of staining on ice, cells were washed 3 times with ice-cold FACS buffer and then fixed with 2% PFA. Cells were analyzed by a BD LSR II machine with BD FACSDiva™ software. Data were analyzed with FlowJo software and presented as mean MFI±SEM (n=3).

[8] = biological target: mouse Her2 (Mus musculus, UniProt P70424); assay: Capture ELISA binding specificity / species cross-reactivity; set-up: recombinant extracellular domain proteins: human EGFR, human HER2, human HER3, human HER4, mouse Her2, or cynomolgus monkey Her2; conditions: recombinant extracellular domain protein
Description: (§1) To determine whether 39S retains the binding specificity and species cross-reactivity of its parental antibody AZ1.39.1, binding of 39S to the receptors of human ErbB family (EGFR, HER2, HER3, and HER4), the mouse Her2, and the cynomolgus monkey Her2 was examined by capture ELISA. Briefly, 96-well plates were coated with one of the following recombinant extracellular domain proteins: human EGFR, human HER2, human HER3, human HER4, mouse Her2, or cynomolgus monkey Her2. Antibody to be tested was prepared by diluting in a stepwise 1:3 serial dilution ranging from 50 nM down to 0.28 pM and then added to the wells in duplicate. After one hour of incubation, plates were washed, and goat anti-human IgG Fab HRP-conjugated secondary antibody was added to each well and the plates were incubated for 1 hour. The plates were washed and TMB substrate was added and incubated for 5-20 min to allow color development. The stop solution was added to the wells at the end of reaction and the plates were read at 450 nm. Binding signal (absorbance at 450 nm) was plotted against antibody concentration using Prism software.
(§2) Binding specificity and species cross-reactivity of bispecific antibodies to the recombinant extracellular domain protein of human EGFR, human HER2, human HER3, human HER4, mouse Her2, or cynomolgus monkey Her2 were determined by capture ELISA as described in Example 1. […]

[9] = biological target: T1, HER2; assay: as above; set-up: recombinant extracellular domain proteins: human EGFR, human HER2, human HER3, human HER4, mouse Her2, or cynomolgus monkey Her2; conditions: recombinant extracellular domain protein
Description: as §1, §2

mouse Her2, sequence (P70424 23-653 limits assumed): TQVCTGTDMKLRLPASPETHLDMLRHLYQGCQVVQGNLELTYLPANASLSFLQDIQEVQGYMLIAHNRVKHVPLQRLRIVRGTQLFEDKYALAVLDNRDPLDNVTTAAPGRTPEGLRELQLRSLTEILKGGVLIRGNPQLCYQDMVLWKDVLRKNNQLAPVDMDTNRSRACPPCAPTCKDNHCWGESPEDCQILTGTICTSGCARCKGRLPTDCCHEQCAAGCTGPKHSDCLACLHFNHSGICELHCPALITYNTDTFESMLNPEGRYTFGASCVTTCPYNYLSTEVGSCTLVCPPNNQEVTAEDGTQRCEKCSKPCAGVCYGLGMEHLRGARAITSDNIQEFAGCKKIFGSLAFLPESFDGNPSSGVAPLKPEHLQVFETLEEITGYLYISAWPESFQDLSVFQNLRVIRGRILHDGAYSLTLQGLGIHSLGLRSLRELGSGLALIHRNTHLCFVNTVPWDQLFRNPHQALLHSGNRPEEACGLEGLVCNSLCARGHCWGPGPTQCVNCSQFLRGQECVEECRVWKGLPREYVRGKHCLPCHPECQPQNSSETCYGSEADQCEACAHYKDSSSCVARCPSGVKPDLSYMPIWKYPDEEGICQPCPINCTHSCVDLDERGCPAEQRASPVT

| Molecule | In vitro potency (EC50 in pM) [1] | in vivo activity (tumor growth) [2] | EC50 [3] | In vitro potency (EC50 in pM) [4] | bystander effect [5] | In vitro potency (EC50 in pM) [6] | competition for binding / epitope [7] | binding by capture ELISA [8] | binding by capture ELISA [9] |
| --- | --- | --- | --- | --- | --- | --- | --- | --- | --- |
| T-DM1 [reference compound] | Inactive | limited activity | 344 pM | Inactive | does not have bystander effect | Inactive |  |  |  |
| 39S: lead optimized monoclonal antibody derived from the 1.39.1 antibody; VH SEQ ID NO:15, VL SEQ ID NO:16 (antibody, V domains shown) VH: EVQLVESGGGLVKPGGSLRLSCAASGFTFSSYSMSWVRQAPGKGLEWVSSISSSSSYIYYADSVKGRFTISRDNAKNSLYLQMNSLRAEDTAVYYCARGGDAYNYYYFDYWGQGTLVTVSS VL: DIVMTQTPLSLSVTPGQPASISCKSSQSVFFRSNNKNILAWYLQKPGQPPQLLIYWASSRESGVPDRFSGSGSGTDFTLKISRVEAEDVGVYYCQQYFGSPFTFGPGTKVDIK |  |  |  |  |  |  | does not compete with trastuzumab or pertuzumab; also recorded: binds to the same epitope as its parental antibody AZ1.39.1 | not | can bind |
